From patent US20260373123A1, “IMPROVED TREATMENT OF CANCERS USING COMBINATIONS OF SMARCA2 DEGRADERS AND KRAS TARGETING THERAPIES” (Prelude Therapeutics Incorporated, priority 2022, published 2026) come the findings set out here.

“Also recorded” adds a separate entry of the source.

The subject of one assay is NCI-H2030. Description: Cell proliferation assay (CellTiter-Glo), drug combination synergy by Bliss and ZIP models, NCI-H2030. Format: cell-based. As to conditions: combination of compound 1 with KRAS G12C inhibitor (MRTX849, AMG510, ARS-1620 or JDQ-443); for synergy (anti-proliferation effects): NCI-H2030, SMARCA4 low/KRAS G12C, day 7; for Bliss synergy score / ZIP synergy score: NCI-H2030, synergistic effect likely where scores larger than 10. On the procedure: FIG. 2. […] Lung cancer NCI-H2030 cells (SMARAC4 low/KRAS G12C) were treated with KRAS G12C inhibitor (MRTX849, AMG510, ARS1629 or JDQ-443) and with a SMARCA2 degrader (compound 1) in a different dose-range. Cell viability was analyzed on day 7 using Cell-titer Glo.
FIG. 5. Bliss and ZIP synergy scores of H2030 cells treated with a SMARCA2 degrader (compound 1) and a KRAS targeting therapy (MRTX849, AMG510, ARS1629 or JDQ443). Synergistic effect is likely where synergy scores are larger than 10.
(§1) The degree of combination synergy, or antagonism, is quantified by comparing the observed drug combination response against the expected response, calculated using a reference model that assumes no interaction between drugs. Drug synergy was determined using the Bliss and Zero interaction potency (ZIP) reference models.
(§2) The Bliss independence model assumes a stochastic process in which two drugs elicit their effects independently, and the expected combination effect can be calculated based on the probability of independent events; The ZIP model captures the drug interaction relationships by comparing the change in the potency (effect at certain dose level) of the dose-response curves between individual drugs and their combinations. ZIP assumes that two non-interacting drugs are expected to incur minimal changes in their dose-response curves. Model calculations can be found at www.ncbi.nlm.nih.gov/pmc/articles/PMC4759128/.
(§3) Cell proliferation assay: Cells were plated in 384-well white-walled, clear-bottom plates in standard tissue culture conditions. 250 cells per well of the NCI-H2030 (ATCC, CRL-5914) cell line was seeded in RPMI-1640 medium, FBS serum to a final concentration of 10%, 100 cells per well of the UM-UC-3 (ATCC, CRL-1749) cell line was seeded in EMEM medium, FBS serum to a final concentration of 10%. The day after plating, serial dilutions of two compounds were plated in dose-response matrices in quadruplicate, including DMSO controls, using a Tecan D300e Digital Dispenser (Tecan Group Ltd. Männedorf, Switzerland). All wells were normalized to highest total volume of DMSO. 7 days later the CellTiter-Glo® 2.0 Cell Viability Assay (CTG) (#G9242, Promega, Madison, WI) was used to measure cell viability effects of drug combinations. The expected drug combination responses were calculated based on Bliss and ZIP reference model using SynergyFinder (Ianevski et al, 2020). Deviations between observed and expected responses with positive and negative values denote synergy and antagonism respectively. Synergistic effect is likely where synergy scores are larger than 10. MRTX849 (Adagrasib, Catalog No. S8884) and ARS-1620 (Catalog No. S8707) were purchased from Selleck Chemicals. AMG510 (Sotorasib, Catalog No. HY-114277) and JDQ-443 (Catalog No. HY-139612) were purchased from MedChemExpress.
NCI-H2030 is a non-small cell lung cancer cell line that express low SMARCA4 and KRAS G12C mutation. Combination therapy was applied to H2030 cells and % viable cells was calculated (see FIG. 2). Bliss and ZIP scores are larger than 10, which indicates compound 1 and KRAS G12C inhibitors will likely show synergistic effects (FIG. 5).

For the next assay, the system named is UM-UC-3. Description: Cell proliferation assay (CellTiter-Glo), drug combination synergy by Bliss and ZIP models, UM-UC-3. Format: cell-based, human. To be noted: for synergy (anti-proliferation effects): combination of compound 1 with KRAS G12C inhibitor (MRTX849, AMG510, ARS1629 or JDQ443), UM-UC-3, SMARCA4 damaging mutation/KRAS G12C, day 7. On the procedure:
FIG. 3. […] Bladder cancer UM-UC-3 cells (SMARAC4 damaging mutation/KRAS G12C) were treated with KRAS G12C inhibitor (MRTX849, AMG510, ARS1629 or JDQ443) and with a SMARCA2 degrader (compound 1) in a different dose-range. Cell viability was analyzed on day 7 using Cell-titer Glo.
FIG. 6. Bliss and ZIP synergy scores of UM-UC-3 cells treated with a SMARCA2 degrader (compound 1) and a KRAS targeting therapy (MRTX849, AMG510, ARS1629 or JDQ443). Synergistic effect is likely where synergy scores are larger than 10.
as §1, §2, §3
UC-UM-3 is a human bladder transitional cell carcinoma cancer cell line that expresses SMARCA4 damaging mutation and KRAS G12C mutation. Combination therapy was applied to UM-UC-3 cells and % viable cells was calculated (FIG. 3). Bliss and ZIP scores are larger than 10, which indicates compound 1 and KRAS G12C inhibitors will likely show synergistic effects (FIG. 6).
(In general: ATP-based viability assays read luminescence as a measure of living cells.)

In another assay the test system is NCI-H838 cells. As to the kind of experiment: Cell viability (Cell-titer Glo), drug combination, control line NCI-H838. It is filed as cell-based. As to conditions: combination of compound 1 with KRAS G12C inhibitor (MRTX849 or AMG510); NCI-H838, SMARCA4 damaging mutation/KRAS WT; day 7. As to the method: (§4) FIG. 4. […] Lung cancer NCI-H838 cells (SMARAC4 damaging mutation/KRAS WT) or NCI-H358 cells (SMARCA4 WT/KRAS G12C) were treated with KRAS G12C inhibitor (MRTX849 or AMG510) and with a SMARCA2 degrader (compound 1) in a different dose-range. Cell viability was analyzed on day 7 using Cell-titer Glo.
as §3, with “Synergistic effect is likely where synergy scores are larger than 10. MRTX849 (Adagrasib, Catalog No. S8884) and ARS-1620 (Catalog No. S8707) were purchased from Selleck Chemicals. AMG510 (Sotorasib, Catalog No. HY-114277) and JDQ-443 (Catalog No. HY-139612) were purchased from MedChemExpress.” left out

The next assay has as its system NCI-H358 cells. As to the kind of experiment: Cell viability (Cell-titer Glo), drug combination, control line NCI-H358. It is filed as cell-based. As to conditions: combination of compound 1 with KRAS G12C inhibitor (MRTX849 or AMG510); NCI-H358, SMARCA4 WT/KRAS G12C; day 7. On the procedure:
as §4
as §3, with “Synergistic effect is likely where synergy scores are larger than 10. MRTX849 (Adagrasib, Catalog No. S8884) and ARS-1620 (Catalog No. S8707) were purchased from Selleck Chemicals. AMG510 (Sotorasib, Catalog No. HY-114277) and JDQ-443 (Catalog No. HY-139612) were purchased from MedChemExpress.” left out

A further assay has as its system UM-UC-3 xenograft tumors. Description: Tumor volume in mice with UM-UC-3 xenograft tumors. As to conditions: for tumor volume reduction (synergy): combination: compound 1 100 mg/kg s.c. Q3D and MRTX849 10 mg/kg p.o. QD, UM-UC-3. It is filed as in vivo. On the procedure: FIG. 7. Plot of mean tumor volume vs. dosing time for UM-UC-3 cells treated with a SMARCA2 degrader (compound 1) and a KRAS targeting therapy (MRTX849).
(§5) The concentration of compound 1 was 100 mg/kg s.c. Q3D and the concentration of MRTX849 was 10 mg/kg p.o. QD. Statistical analysis used the two-tailed Mann-Whitney test versus vehicle, with *P<0.05, **P<0.01 and ***P<0.001.

Another assay has as its system H2030 xenograft tumors. Description: Tumor volume in mice with H2030 xenograft tumors. To be noted: for tumor volume reduction (synergy): combination: compound 1 100 mg/kg s.c. Q3D and MRTX849 10 mg/kg p.o. QD, H2030. Format: in vivo. As to the method: FIG. 8. Plot of mean tumor volume vs. dosing time for H2030 cells treated with a SMARCA2 degrader (compound 1) and a KRAS targeting therapy (MRTX849).
as §5

Where [1] appears, read: combination of compound 1 with KRAS G12C inhibitors, UM-UC-3, synergistic effect likely where scores larger than 10.

For `C=CC(=O)N1CCN(c2nc(=O)n(-c3c(C)ccnc3C(C)C)c3nc(-c4c(O)cccc4F)c(F)cc23)[C@@H](C)C1` (atropisomer, axis not shown) [JDQ-443], in the assay on NCI-H2030, the “synergy (anti-proliferation effects)” value is listed as “synergistic anti-proliferation effects; also recorded: Excellent synergy”, the Bliss synergy score is > 10 and the ZIP synergy score is given as > 10. For the same compound, in the assay with UM-UC-3, the “synergy (anti-proliferation effects)” value was “synergistic anti-proliferation effects”.

Turning to `C=CC(=O)N1CCN(c2ncnc3c(F)c(-c4c(O)cccc4F)c(Cl)cc23)CC1` [ARS-1620], the “synergy (anti-proliferation effects)” value in the assay on NCI-H2030 is on record as “Excellent synergy”; in the assay on NCI-H2030 (listed as ARS1629) it was “synergistic anti-proliferation effects”; in the assay with UM-UC-3 it was “synergistic anti-proliferation effects”. In addition, the Bliss synergy score in the assay with NCI-H2030 is on record as > 10. For the same compound, the ZIP synergy score with NCI-H2030 was > 10.

In the case of `Cc1ncsc1-c1ccc([C@H](C)NC(=O)[C@@H]2C[C@@H](O)CN2C(=O)[C@@H](c2cc(O[C@@H](C)CN3CC[C@@H](N4CCN5c6cc(-c7ccccc7O)nnc6NC[C@H]5C4)C3)no2)C(C)C)cc1` [Compound 1], the “synergy (anti-proliferation effects)” value in the assay with NCI-H2030 and in the assay on UM-UC-3 was “synergistic anti-proliferation effects; also recorded: Excellent synergy; also recorded: potent synergistic interaction” each time. Further, the Bliss synergy score in the assay on NCI-H2030 and in the assay with UM-UC-3 (setting [1]) was > 10 throughout. The ZIP synergy score with NCI-H2030 and in the assay with UM-UC-3 (setting [1]) was > 10 in each case. In addition, the “synergistic effects (cell viability)” value with NCI-H838 cells and in the assay with NCI-H358 cells was “do not show synergistic effects” throughout. The “enlargement of tumor volumes” value is on record as “can slow down the enlargement of tumor volumes” in the assay on UM-UC-3 xenograft tumors (combination of compound 1 and a KRAS targeting therapy, mice with UM-UC-3 xenograft tumors); “can slow down the enlargement of tumor volumes” in the assay on H2030 xenograft tumors (combination of compound 1 and a KRAS targeting therapy, mice with H2030 xenograft tumors). Also, the “tumor volume reduction (synergy)” value with UM-UC-3 xenograft tumors and in the assay with H2030 xenograft tumors was “synergistic effects for tumor volume reduction” each time.

Regarding `C=C(F)C(=O)N1CCN(c2nc(OC[C@@H]3CCCN3C)nc3c2CCN(c2cccc4cccc(Cl)c24)C3)C[C@@H]1CC#N` [MRTX849, adagrasib], the figures for the “synergy (anti-proliferation effects)” value in the assay on NCI-H2030 and with UM-UC-3 were “synergistic anti-proliferation effects; also recorded: Excellent synergy” and “synergistic anti-proliferation effects”, respectively. Moreover, the Bliss synergy score with NCI-H2030 is recorded as > 10. Moreover, the ZIP synergy score in the assay with NCI-H2030 was > 10. For the same compound, the “synergistic effects (cell viability)” value in the assay on NCI-H838 cells and in the assay with NCI-H358 cells was “do not show synergistic effects” throughout. Moreover, the “tumor volume reduction (synergy)” value in the assay on UM-UC-3 xenograft tumors and with H2030 xenograft tumors was “synergistic effects for tumor volume reduction” each time.
